Experimental data published in article PMC12340956, “Tranylcypromine-Based LSD1 Inhibitors as Useful Agents to Reduce Viability of” (ACS Infectious Diseases, 2025).
Counter-ions that a name gives are not always drawn. Like-named read-outs stand apart in the source and are kept apart here.

What was measured:
[1] = test system: newly transformed schistosomula (NTS); assay: NTS viability phenotypic screening, 72 h; settings: for IC50: Schistosoma mansoni, read-out: IC50 (NTS viability)
Experimental: (§1) For NTS and adult worms, transparent flat-bottom 96- and 24-well plates were used, respectively (Sarstedt, Switzerland). For juvenile worms, 48-well plates were used with 3–6 worms per plate and RPMI medium with 5% FCS and 1% penicillin/streptomycin. Compounds were initially tested at 20 and 10 μM in triplicate on NTS and repeated once; each well contained 30–40 NTS. Phenotypic reference points such as motility, morphology, and granularity were used to score incubated parasites’ overall viability (scores from 0 to 3). […] Identified hits from the NTS screening were tested on adult worms. […] The experiment was conducted in duplicate and repeated; standard deviations were calculated from two wells. […] For all in vitro assays, negative controls (DMSO at the highest tested concentration) were included.

[2] = test system: human recombinant LSD1-CoREST enzymatic complex; settings: Table S1, cited from earlier work
adult worms = assay: Adult worm viability phenotypic assay, 72 h; settings: Schistosoma mansoni, read-out: IC50 (adult worm viability)
Experimental: The life cycle is maintained at the Swiss TPH as described previously. Cercariae were obtained from infected snails by exposing them to a strong light source for 3–4 h in pond water.
as §1

[3] = target: T1, human LSD1-CoREST complex (Homo sapiens, UniProt O60341); assay: ThermoFAD thermal stability assay; type: binding; settings: LSD1-CoREST thermal stability
T1 construct: made in house
Experimental: Compounds 14–22 were tested against the human LSD1-CoREST complex to determine their inhibitory activity. […] ThermoFAD assays were then performed to assess the impact of 14–22 on the thermal stability (ΔT m values, Table ) of the LSD1-CoREST complex. The most significant shifts in Tm values corresponded to the strongest binders. […] Compound 22 was not tested, considering its previous negative results.
Protein expression, thermal stability, and inhibition of human LSD1-CoREST were performed using established protocols. […] LSD1-CoREST (0.4 μM) was preincubated with the inhibitor at 25 °C for 10 min in the presence of 5% DMSO. The reaction was initiated by adding an equal volume of the substrate solution to the enzyme–inhibitor mixture, and resorufin fluorescence (excitation at 530–570 nm and emission at 580–590 nm) was detected with a Clariostar plate reader.

[4] = target: T1, human LSD1-CoREST complex; assay: HRP-coupled LSD1 inhibition assay; type: biochemical; settings: 10 min preincubation, read-out: IC50 (hLSD1 direct inhibition)
Experimental: Protein expression, thermal stability, and inhibition of human LSD1-CoREST were performed using established protocols. […] The reaction was initiated by adding an equal volume of the substrate solution to the enzyme–inhibitor mixture, and resorufin fluorescence (excitation at 530–570 nm and emission at 580–590 nm) was detected with a Clariostar plate reader.

[5] = ref 2 (SI: Fioravanti et al., ChemMedChem 2020)
[6] = ref 4 (SI: Rodriguez et al., MedChemComm 2015)

Row | Compound | Percentage of reduction of NTS viability, 72 h ([1]; 10 μM) [%] | Percentage of reduction of NTS viability, 72 h ([1]; 20 μM) [%] | IC50 [1] [nM] | IC50 [2, 5] [nM] | IC50 [2, 6] [nM] | IC50 (adult worms) [nM] | ΔTm [3] | IC50 [4] [nM]
1 | NC1CC1c1ccc(NC(=O)Cc2cccc3ccccc23)cc1 (stereo not shown) [Compound 8] | 46.5 ± 2.6 | 50.0 ± 0.0 | […] | […] | – | – | – | –
2 | NC1CC1c1ccc(NC(=O)CNC(=O)OCc2ccccc2)cc1 (stereo not shown) [Compound 9] | 37.93 ± 1.7 | 41.7 ± 4.2 | > 20000 | – | 300 ± 30 | – | – | –
3 | NC1CC1c1ccc(NC(=O)C2CCCN2C(=O)OCc2ccccc2)cc1 (stereo not shown) [Compound 10] | 32.8 ± 0.9 | 37.5 ± 4.2 | > 20000 | – | 60 ± 10 | – | – | –
4 | NC1CC1c1ccc(NC(=O)C(Cc2ccccc2)NC(=O)OCc2ccccc2)cc1 (stereo not shown) [Compound 11, benzyl (1-((4-(2-aminocyclopropyl)phenyl)amino)-1-oxo-3-phenylpropan-2-yl)carbamate] | – | – | – | – | – | > 20000 | – | –
5 | NC1CC1c1ccc(NC(=O)C(Cc2c[nH]c3ccccc23)NC(=O)OCc2ccccc2)cc1 (stereo not shown) [Compound 12] | 41.4 ± 1.7 | 50.0 ± 0.0 | > 10000 | 190 ± 30 | – | – | – | –
6 | NC1CC1c1ccc(NC(=O)C(Cc2csc3ccccc23)NC(=O)OCc2ccccc2)cc1 (stereo not shown) [Compound 13] | 36.2 ± 0.9 | 50.0 ± 4.2 | > 10000 | 80 ± 10 | – | – | – | –
7 | Cc1ccc(C(=O)Nc2ccc(C3CC3N)cc2)cc1.Cl (stereo not shown) [Compound 14, N-(4-(2-Aminocyclopropyl)phenyl)-4-methylbenzamide Hydrochloride] | 22.9 ± 2.1 | 41.7 ± 4.2 | > 20000 | – | – | – | +8 °C | 150 ± 20
8 | N#Cc1ccc(C(=O)Nc2ccc(C3CC3N)cc2)cc1 (stereo not shown) [Compound 17, N-(4-(2-Aminocyclopropyl)phenyl)-4-cyanobenzamide Hydrochloride] | 25.0 ± 0.0 | 31.2 ± 6.3 | > 20000 | – | – | – | +8.5 °C | 150 ± 20
